One assay deals with Tyrosine-protein kinase Fyn (Homo sapiens, UniProt P06241). Put plainly: biochemical. The class given is cell-based, Insect cells. The conditions noted are these: insect cells.
Melanocortin receptor 3, sequence (P41968 whole entry): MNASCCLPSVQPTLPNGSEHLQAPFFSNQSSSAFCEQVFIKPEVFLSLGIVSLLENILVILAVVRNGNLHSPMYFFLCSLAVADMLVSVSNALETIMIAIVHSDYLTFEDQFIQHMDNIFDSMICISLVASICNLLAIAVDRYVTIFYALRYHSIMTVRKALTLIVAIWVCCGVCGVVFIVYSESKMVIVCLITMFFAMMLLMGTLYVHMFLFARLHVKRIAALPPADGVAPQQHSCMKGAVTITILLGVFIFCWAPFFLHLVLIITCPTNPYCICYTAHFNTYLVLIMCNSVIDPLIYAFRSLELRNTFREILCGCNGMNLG
Sodium-dependent dopamine transporter, sequence (Q01959 whole entry): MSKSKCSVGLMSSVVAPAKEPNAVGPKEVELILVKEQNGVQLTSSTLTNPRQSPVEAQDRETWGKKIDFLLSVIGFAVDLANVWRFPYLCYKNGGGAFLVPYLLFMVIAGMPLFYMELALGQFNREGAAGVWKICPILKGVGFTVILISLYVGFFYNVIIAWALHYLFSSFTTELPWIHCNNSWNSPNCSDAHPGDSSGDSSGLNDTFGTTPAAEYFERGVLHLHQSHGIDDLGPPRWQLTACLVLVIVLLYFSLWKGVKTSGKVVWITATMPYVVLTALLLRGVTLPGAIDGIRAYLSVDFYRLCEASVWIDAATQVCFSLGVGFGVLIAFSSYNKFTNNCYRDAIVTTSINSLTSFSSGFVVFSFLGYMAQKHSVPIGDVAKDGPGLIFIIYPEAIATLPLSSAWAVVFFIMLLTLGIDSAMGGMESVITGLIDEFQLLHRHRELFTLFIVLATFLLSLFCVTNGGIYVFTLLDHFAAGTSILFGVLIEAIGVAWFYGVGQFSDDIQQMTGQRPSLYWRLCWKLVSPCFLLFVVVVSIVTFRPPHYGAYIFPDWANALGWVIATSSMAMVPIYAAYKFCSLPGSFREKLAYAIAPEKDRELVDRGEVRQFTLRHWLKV
Tyrosine-protein kinase Fyn, sequence (P06241 whole entry): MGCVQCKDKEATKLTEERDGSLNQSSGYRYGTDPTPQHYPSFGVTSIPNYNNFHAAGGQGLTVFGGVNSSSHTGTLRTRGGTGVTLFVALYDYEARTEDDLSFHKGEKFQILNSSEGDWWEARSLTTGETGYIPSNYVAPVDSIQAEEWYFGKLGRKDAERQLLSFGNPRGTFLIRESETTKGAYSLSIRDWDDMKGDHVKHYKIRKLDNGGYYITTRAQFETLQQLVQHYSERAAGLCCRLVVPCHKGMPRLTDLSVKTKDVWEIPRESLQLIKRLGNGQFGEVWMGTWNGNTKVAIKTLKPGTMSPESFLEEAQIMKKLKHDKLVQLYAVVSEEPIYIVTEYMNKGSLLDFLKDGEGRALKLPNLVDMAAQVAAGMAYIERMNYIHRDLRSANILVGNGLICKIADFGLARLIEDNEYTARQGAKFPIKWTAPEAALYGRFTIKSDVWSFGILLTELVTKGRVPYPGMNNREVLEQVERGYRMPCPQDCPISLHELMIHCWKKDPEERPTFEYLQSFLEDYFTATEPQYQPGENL
Insulin receptor, sequence (P15127 27-759 limits assumed): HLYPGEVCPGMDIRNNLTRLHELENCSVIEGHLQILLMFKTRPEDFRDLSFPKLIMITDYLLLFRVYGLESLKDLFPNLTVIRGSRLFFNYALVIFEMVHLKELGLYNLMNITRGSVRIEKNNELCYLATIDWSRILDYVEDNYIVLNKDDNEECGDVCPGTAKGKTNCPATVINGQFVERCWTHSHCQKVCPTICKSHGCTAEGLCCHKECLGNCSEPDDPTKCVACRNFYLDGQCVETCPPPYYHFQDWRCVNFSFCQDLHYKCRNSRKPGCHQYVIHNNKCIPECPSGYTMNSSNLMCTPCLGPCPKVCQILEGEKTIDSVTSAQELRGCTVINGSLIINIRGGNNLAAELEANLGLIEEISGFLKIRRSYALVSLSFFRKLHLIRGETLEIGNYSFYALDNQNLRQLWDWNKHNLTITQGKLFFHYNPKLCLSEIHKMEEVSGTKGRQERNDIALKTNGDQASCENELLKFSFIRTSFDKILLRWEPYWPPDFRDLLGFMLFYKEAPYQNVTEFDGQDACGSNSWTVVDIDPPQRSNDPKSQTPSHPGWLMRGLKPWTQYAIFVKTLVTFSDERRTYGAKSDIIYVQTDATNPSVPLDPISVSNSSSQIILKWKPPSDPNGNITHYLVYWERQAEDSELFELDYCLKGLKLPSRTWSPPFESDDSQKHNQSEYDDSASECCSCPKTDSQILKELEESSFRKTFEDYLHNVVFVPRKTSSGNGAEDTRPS
Insulin receptor, sequence (P15127 764-1383 limits assumed): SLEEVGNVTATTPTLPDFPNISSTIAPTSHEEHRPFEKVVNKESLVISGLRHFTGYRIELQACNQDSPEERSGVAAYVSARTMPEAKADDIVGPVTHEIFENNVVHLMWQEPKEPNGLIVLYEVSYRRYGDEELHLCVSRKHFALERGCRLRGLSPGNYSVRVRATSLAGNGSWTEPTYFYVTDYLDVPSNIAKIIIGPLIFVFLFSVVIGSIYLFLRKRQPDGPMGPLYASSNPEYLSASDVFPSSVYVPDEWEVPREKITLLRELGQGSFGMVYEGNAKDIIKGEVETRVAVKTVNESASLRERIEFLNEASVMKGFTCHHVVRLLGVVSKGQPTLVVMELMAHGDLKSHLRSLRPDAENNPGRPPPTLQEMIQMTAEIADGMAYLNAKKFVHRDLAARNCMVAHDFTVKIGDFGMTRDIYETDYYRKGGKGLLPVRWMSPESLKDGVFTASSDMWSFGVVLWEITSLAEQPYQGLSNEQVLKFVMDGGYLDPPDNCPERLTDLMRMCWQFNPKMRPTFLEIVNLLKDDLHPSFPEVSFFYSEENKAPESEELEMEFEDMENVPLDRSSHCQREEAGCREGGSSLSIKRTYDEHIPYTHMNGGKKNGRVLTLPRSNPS
5-hydroxytryptamine receptor 1B, sequence (P28564 whole entry): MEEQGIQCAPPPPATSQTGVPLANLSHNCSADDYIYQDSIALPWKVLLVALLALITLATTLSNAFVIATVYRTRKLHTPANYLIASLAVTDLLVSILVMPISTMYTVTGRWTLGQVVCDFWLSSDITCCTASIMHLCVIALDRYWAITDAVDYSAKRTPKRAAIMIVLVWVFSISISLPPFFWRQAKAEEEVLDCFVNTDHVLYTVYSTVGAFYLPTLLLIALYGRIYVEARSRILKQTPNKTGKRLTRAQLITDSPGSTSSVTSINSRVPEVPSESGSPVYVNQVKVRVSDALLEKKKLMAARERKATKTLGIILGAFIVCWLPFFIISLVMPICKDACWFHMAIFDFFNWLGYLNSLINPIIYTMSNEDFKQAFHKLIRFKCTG
IVERMECTIN: the IC50 result is on record as “Not Active” and the Ki result was “Not Active”.

Turning to `NC(=O)c1ncn([C@@H]2O[C@H](CO)[C@@H](O)[C@H]2O)n1` [RIBAVIRIN], the IC50 entry is reported as “Not Active”.

Take `Nc1nnc(-c2cccc(Cl)c2Cl)c(N)n1` [LAMOTRIGINE]: the IC50 entry was “Not Active”.

System in a further assay: not listed separately
Put plainly: DRUGMATRIX: GABAA, Flunitrazepam, Central radioligand binding (ligand: [3H] Flunitrazepam). In kind it is cell membranes, Rattus norvegicus, Wistar, Brain, Membrane. The conditions noted are these: Not Active = under 50% inhibition at 10 µM.
For the compound IVERMECTIN, the IC50 result is “Not Active” and the Ki result is given as “Not Active”.

Consider `NC(=O)c1ncn([C@@H]2O[C@H](CO)[C@@H](O)[C@H]2O)n1` [RIBAVIRIN], for which the IC50 entry is “Not Active” and the Ki result is recorded as “Not Active”.

Consider `Nc1nnc(-c2cccc(Cl)c2Cl)c(N)n1` [LAMOTRIGINE], for which the IC50 result is “Not Active” and the Ki result is on record as “Not Active”.

The target of the next assay is Receptor tyrosine-protein kinase erbB-2 (Homo sapiens, UniProt P04626). Put plainly: biochemical. The class given is cell-based, Insect cells. Particulars: insect cells.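 Note: inhibition of HER2 kinase enzyme activity, measured with Poly(Glu:Tyr) as the phosphorylation substrate; in other assays of this panel Not Active means under 50% inhibition at 10 µM.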
IVERMECTIN: the IC50 entry is reported as “Not Active” and the Ki entry is on record as “Not Active”.

In the case of `NC(=O)c1ncn([C@@H]2O[C@H](CO)[C@@H](O)[C@H]2O)n1` [RIBAVIRIN], the IC50 result is given as “Not Active”.

For `Nc1nnc(-c2cccc(Cl)c2Cl)c(N)n1` [LAMOTRIGINE], the IC50 entry is reported as “Not Active”.

A further assay addresses 5-hydroxytryptamine receptor 1B (Rattus norvegicus, UniProt P28564).
Assay: not given
Conditions: not given
In kind it is cell membranes, Wistar, Cerebral cortex, Membrane.
As to IVERMECTIN, the IC50 result is on record as “Not Active” and the Ki entry is “Not Active”.

With `NC(=O)c1ncn([C@@H]2O[C@H](CO)[C@@H](O)[C@H]2O)n1` [RIBAVIRIN], the IC50 entry is given as “Not Active”.

In the case of `Nc1nnc(-c2cccc(Cl)c2Cl)c(N)n1` [LAMOTRIGINE], the half-inhibitory concentration (IC50) entry is reported as “Not Active”.

A further assay has as its target Sodium-dependent dopamine transporter (Homo sapiens, UniProt Q01959). Put plainly: DRUGMATRIX: Dopamine Transporter radioligand binding (ligand: [125I] RTI-55). In kind it is cell membranes, CHO-K1, Membrane. Particulars: cho-k1; Not Active = under 50% inhibition at 10 µM.
Consider `NC(=O)c1ncn([C@@H]2O[C@H](CO)[C@@H](O)[C@H]2O)n1` [RIBAVIRIN], for which the IC50 result is on record as “Not Active”.

With `Nc1nnc(-c2cccc(Cl)c2Cl)c(N)n1` [LAMOTRIGINE], the IC50 entry is on record as “Not Active”.

The assay is the same for the next values; noted with them: cho-k1; Not Active = under 50% inhibition at 10 µM; read-out: IC50.
As to IVERMECTIN, the IC50 is 4.46 µM.

Still in this assay, the particulars now being: cho-k1; Not Active = under 50% inhibition at 10 µM; read-out: Ki.
As to IVERMECTIN, the Ki came to 3.54 µM.

The next assay deals with T1, Neutrophil elastase (Homo sapiens, UniProt P08246).
T1 sequence (P08246 whole entry): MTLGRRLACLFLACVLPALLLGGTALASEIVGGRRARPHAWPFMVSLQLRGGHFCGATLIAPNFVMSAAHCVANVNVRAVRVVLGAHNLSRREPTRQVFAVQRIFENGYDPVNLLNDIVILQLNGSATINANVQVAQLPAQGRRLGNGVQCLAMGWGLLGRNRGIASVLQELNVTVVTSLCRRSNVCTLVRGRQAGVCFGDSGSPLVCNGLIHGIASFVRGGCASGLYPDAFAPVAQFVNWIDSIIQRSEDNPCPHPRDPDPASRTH
Assay: not given
The class given is tissue-based.
Conditions: not given
In the case of IVERMECTIN, the IC50 entry is on record as “Not Active” and the Ki entry is reported as “Not Active”.

For the compound `NC(=O)c1ncn([C@@H]2O[C@H](CO)[C@@H](O)[C@H]2O)n1` [RIBAVIRIN], the IC50 result was “Not Active”.

As to `Nc1nnc(-c2cccc(Cl)c2Cl)c(N)n1` [LAMOTRIGINE], the IC50 entry is “Not Active”.

For the next assay, the target named is T2, Muscarinic acetylcholine receptor M5 (Homo sapiens, UniProt P08912). Note: in other assays of this panel Not Active means under 50% inhibition at 10 µM.
T2 sequence (P08912 whole entry): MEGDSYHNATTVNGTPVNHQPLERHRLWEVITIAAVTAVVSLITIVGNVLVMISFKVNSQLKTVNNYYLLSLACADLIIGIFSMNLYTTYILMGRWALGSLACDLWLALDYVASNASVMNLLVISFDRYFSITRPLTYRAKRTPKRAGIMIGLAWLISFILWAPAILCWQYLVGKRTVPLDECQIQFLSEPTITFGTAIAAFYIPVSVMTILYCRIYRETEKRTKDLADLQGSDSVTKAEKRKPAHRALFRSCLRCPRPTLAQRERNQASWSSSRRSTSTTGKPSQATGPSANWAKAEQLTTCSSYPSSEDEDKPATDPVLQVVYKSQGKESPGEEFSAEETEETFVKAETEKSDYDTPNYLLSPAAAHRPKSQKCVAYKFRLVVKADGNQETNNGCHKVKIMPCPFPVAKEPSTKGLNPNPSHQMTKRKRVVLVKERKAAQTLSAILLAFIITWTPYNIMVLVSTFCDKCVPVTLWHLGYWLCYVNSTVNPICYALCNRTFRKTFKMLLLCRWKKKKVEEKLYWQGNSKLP
Assay: not given
The class given is cell membranes, CHO-K1, Membrane. Particulars: cho-k1.
In the case of `NC(=O)c1ncn([C@@H]2O[C@H](CO)[C@@H](O)[C@H]2O)n1` [RIBAVIRIN], the IC50 entry was “Not Active”.

`Nc1nnc(-c2cccc(Cl)c2Cl)c(N)n1` [LAMOTRIGINE]: the IC50 entry is on record as “Not Active”.

Staying with this assay, now noted: cho-k1; read-out: IC50.
With IVERMECTIN, the IC50 came out at 3.61 µM.

Staying with this assay, now noted: cho-k1; read-out: Ki.
For the compound IVERMECTIN, the Ki stood at 2.59 µM.

System in another assay: not listed separately
Put plainly: DRUGMATRIX: Sigma2 radioligand binding (ligand: [3H] Ifenprodil). The class given is cell membranes, Rattus norvegicus, Wistar, Brain, Membrane. Particulars: Not Active = under 50% inhibition at 10 µM.
Turning to IVERMECTIN, the IC50 entry was “Not Active” and the Ki result is on record as “Not Active”.

Regarding `NC(=O)c1ncn([C@@H]2O[C@H](CO)[C@@H](O)[C@H]2O)n1` [RIBAVIRIN], the IC50 result is reported as “Not Active” and the Ki entry was “Not Active”.

`Nc1nnc(-c2cccc(Cl)c2Cl)c(N)n1` [LAMOTRIGINE]: the IC50 result is “Not Active” and the Ki entry is “Not Active”.

In another assay the target is Histamine H2 receptor (Homo sapiens, UniProt P25021). Note: in other assays of this panel Not Active means under 50% inhibition at 10 µM.
Histamine H2 receptor, sequence (P25021 whole entry): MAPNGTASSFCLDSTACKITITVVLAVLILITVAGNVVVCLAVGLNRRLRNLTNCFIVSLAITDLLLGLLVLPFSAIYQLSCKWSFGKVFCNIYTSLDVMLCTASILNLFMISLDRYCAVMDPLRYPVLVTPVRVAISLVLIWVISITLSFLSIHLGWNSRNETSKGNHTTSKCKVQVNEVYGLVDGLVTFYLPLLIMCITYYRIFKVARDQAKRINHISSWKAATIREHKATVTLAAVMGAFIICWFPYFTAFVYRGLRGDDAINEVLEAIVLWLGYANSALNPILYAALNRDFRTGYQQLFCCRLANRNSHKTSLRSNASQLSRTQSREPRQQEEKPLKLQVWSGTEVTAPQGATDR
Assay: not given
The class given is cell membranes, CHO-K1, Membrane. Particulars: cho-k1.
For IVERMECTIN, the IC50 entry was “Not Active” and the Ki entry is “Not Active”.

For `NC(=O)c1ncn([C@@H]2O[C@H](CO)[C@@H](O)[C@H]2O)n1` [RIBAVIRIN], the IC50 result is listed as “Not Active”.

With `Nc1nnc(-c2cccc(Cl)c2Cl)c(N)n1` [LAMOTRIGINE], the IC50 result was “Not Active”.

A further assay deals with Melanocortin receptor 5 (Homo sapiens, UniProt P33032).
Melanocortin receptor 5, sequence (P33032 whole entry): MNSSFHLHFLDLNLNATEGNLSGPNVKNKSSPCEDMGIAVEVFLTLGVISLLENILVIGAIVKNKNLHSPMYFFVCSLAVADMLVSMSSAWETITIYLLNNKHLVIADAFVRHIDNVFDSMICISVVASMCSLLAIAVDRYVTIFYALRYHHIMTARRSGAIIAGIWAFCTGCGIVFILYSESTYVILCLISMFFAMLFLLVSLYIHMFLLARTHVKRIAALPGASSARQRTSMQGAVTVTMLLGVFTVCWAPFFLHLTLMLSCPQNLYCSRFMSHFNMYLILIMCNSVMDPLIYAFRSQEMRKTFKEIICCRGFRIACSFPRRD
Assay: not given
In kind it is cell membranes, HEK293, Membrane. Particulars: hek293.
Turning to IVERMECTIN, the IC50 result is on record as “Not Active” and the Ki entry is listed as “Not Active”.

For `NC(=O)c1ncn([C@@H]2O[C@H](CO)[C@@H](O)[C@H]2O)n1` [RIBAVIRIN], the IC50 result is on record as “Not Active”.

For the compound `Nc1nnc(-c2cccc(Cl)c2Cl)c(N)n1` [LAMOTRIGINE], the IC50 entry is given as “Not Active”.

The next assay has as its target Insulin receptor (Rattus norvegicus, UniProt P15127). Note: in other assays of this panel Not Active means under 50% inhibition at 10 µM.
Assay: not given
The class given is cell membranes, Wistar, Liver, Membrane.
Conditions: not given
As to IVERMECTIN, the IC50 entry is “Not Active” and the Ki result is “Not Active”.

On to `NC(=O)c1ncn([C@@H]2O[C@H](CO)[C@@H](O)[C@H]2O)n1` [RIBAVIRIN], for which the IC50 result is listed as “Not Active”.

On to `Nc1nnc(-c2cccc(Cl)c2Cl)c(N)n1` [LAMOTRIGINE], for which the IC50 entry is recorded as “Not Active”.

System in another assay: not listed separately
Put plainly: DRUGMATRIX: Leukotriene, BLT (LTB4) radioligand binding (ligand: [3H]LTB4). Particulars: u-937; Not Active = under 50% inhibition at 10 µM. The class given is cell membranes, Membrane.
For the compound IVERMECTIN, the IC50 result is on record as “Not Active” and the Ki result was “Not Active”.

Consider `NC(=O)c1ncn([C@@H]2O[C@H](CO)[C@@H](O)[C@H]2O)n1` [RIBAVIRIN], for which the IC50 entry was “Not Active” and the Ki entry is “Not Active”.

On to `Nc1nnc(-c2cccc(Cl)c2Cl)c(N)n1` [LAMOTRIGINE], for which the IC50 entry is recorded as “Not Active” and the Ki entry is “Not Active”.

The next assay deals with T3, Caspase-1 (Homo sapiens, UniProt P29466).
T3 sequence (P29466 whole entry): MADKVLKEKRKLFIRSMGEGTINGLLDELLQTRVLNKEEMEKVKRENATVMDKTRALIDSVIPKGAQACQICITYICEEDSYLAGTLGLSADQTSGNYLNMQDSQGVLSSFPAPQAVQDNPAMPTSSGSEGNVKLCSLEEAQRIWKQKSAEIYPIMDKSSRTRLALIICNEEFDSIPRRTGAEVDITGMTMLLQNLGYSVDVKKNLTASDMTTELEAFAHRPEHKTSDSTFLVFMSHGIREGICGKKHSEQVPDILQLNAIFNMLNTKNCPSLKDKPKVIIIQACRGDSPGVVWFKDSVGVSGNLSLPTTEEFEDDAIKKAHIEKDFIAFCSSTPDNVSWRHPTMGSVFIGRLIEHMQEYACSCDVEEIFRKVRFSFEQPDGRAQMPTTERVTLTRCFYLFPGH
Assay: not given
Also on record: species or system Escherichia coli.
Conditions: not given
With IVERMECTIN, the IC50 entry was “Not Active” and the Ki result was “Not Active”.

For `NC(=O)c1ncn([C@@H]2O[C@H](CO)[C@@H](O)[C@H]2O)n1` [RIBAVIRIN], the IC50 result is “Not Active”.

Take `Nc1nnc(-c2cccc(Cl)c2Cl)c(N)n1` [LAMOTRIGINE]: the IC50 result is listed as “Not Active”.

A further assay addresses Melanocortin receptor 3 (Homo sapiens, UniProt P41968).
Assay: not given
The class given is cell membranes, Membrane. Particulars: hek293.
With IVERMECTIN, the IC50 result is recorded as “Not Active” and the Ki entry is on record as “Not Active”.

As to `NC(=O)c1ncn([C@@H]2O[C@H](CO)[C@@H](O)[C@H]2O)n1` [RIBAVIRIN], the IC50 result was “Not Active”.

As for `Nc1nnc(-c2cccc(Cl)c2Cl)c(N)n1` [LAMOTRIGINE], the IC50 entry was “Not Active”.

The target of another assay is T4, Muscarinic acetylcholine receptor M4 (Homo sapiens, UniProt P08173). Note: in other assays of this panel Not Active means under 50% inhibition at 10 µM.
T4 sequence (P08173 whole entry): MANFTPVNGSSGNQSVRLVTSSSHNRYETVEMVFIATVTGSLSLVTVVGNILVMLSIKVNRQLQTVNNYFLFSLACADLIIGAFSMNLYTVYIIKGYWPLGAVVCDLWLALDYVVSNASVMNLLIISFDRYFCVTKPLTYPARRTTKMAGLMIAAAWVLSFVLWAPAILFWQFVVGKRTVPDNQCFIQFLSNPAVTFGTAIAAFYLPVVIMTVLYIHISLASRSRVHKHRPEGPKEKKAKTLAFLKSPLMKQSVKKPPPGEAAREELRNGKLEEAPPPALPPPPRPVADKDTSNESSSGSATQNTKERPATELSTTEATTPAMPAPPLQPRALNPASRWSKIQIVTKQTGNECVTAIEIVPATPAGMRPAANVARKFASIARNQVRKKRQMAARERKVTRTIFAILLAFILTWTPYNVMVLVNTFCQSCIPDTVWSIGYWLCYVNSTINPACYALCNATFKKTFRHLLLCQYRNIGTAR
Assay: not given
The class given is cell membranes, CHO-K1, Membrane. Particulars: cho-k1.
With IVERMECTIN, the IC50 entry is recorded as “Not Active” and the Ki result is listed as “Not Active”.

For the compound `NC(=O)c1ncn([C@@H]2O[C@H](CO)[C@@H](O)[C@H]2O)n1` [RIBAVIRIN], the IC50 entry was “Not Active”.

For `Nc1nnc(-c2cccc(Cl)c2Cl)c(N)n1` [LAMOTRIGINE], the IC50 entry was “Not Active”.

(Values after ChEMBL document CHEMBL1909046, “DrugMatrix in vitro pharmacology data”.)
